Reference: patent publication US6727234B2, “Isoprenoid analog compounds and methods of making and use thereof” (University of Iowa Research Foundation, priority 2001, dated 2004)

Assays:
cell membranes = test: Penetration of cell membranes to afford fluorescent cells; type: cell-based; settings: affords fluorescent cells
[1] = Fluorescence of the compound; type: physicochemical
From the text: Compound 58 can be used in enzyme experiments with FPTase and Ras in order to obtain standard Ras proteins labeled with the fluorescent isoprenoid analog. Similarly compound 62 can be used with GGPTase I or II and proteins such as Rho B to obtain other protein standards. Protein standards obtained from in vitro experiments can then be used to analyze cell lysates for the formation of analogous proteins through in vivo experiments. Compound 58 ^1H NMR(D2O) δ7.6 (1H), 7.2 (1H), 6.4 (2H), 5.4 (1H), 5.2 (1H), 4.4 (2H), 3.6 (3H), 3.4 (2H), 2.0 (2H), 1.8 (2H), 1.6 (3H), 1.4 (3H); and ^31P NMR −6.9 (d, 1P) −9.75 (d, 1P).

[2] = Metabolic stability compared to previously prepared analogs; type: in vitro ADME; settings: compared to other previously prepared analogs; attributed to amine linkage binding anthranilic acid to the terpenoid chain
From the text: As exemplified in the reaction scheme below, Fischer esterification of commercial anthranilic acid provides the corresponding amino ester 54. Reductive amination of amine 54 with aldehyde 55, derived from SeO2 oxidation of geranyl acetate and subsequent MnO2 oxidation, gave the desired amine 56 and subsequent cleavage of the acetate gave the farnesol analog 57.

COC(=O)c1ccccc1NC/C(C)=C/CC/C(C)=C/CO [Compound 57]
penetration of cell membranes (cell membranes): readily penetrates cell membranes | fluorescence [1]: highly fluorescent | metabolic stability [2]: much greater degree of metabolic stability
